# Test results reported in patent US8394775B2 (Amorepacific Corporation, priority 2005, dated 2013).
# How the values were obtained:
# [1] = system: Human keratinocytes HaCaT cell line; experiment: Inhibition of reactive oxygen species (ROS) production using fluorescent material (DCFH-DA), UVB irradiation; format: cell-based; conditions: HaCaT cells, UVB 30 mJ/cm^2, DCF fluorescence
# Protocol: The cell lines used in the test was Human keratinocytes HaCaT cell line. The cells were distributed to a 96 well black plate for fluorescence measurement at 2.0×10^4 per each well and cultured in DMEM (Dulbeccos Modification of Eagles Medium, FBS 10%) supplemented with penicillin/streptomycin at 37° C., 5% CO2 for 1 day, followed by treatment with test samples. Serum free DMEM (FBS free) supplemented with penicillin/streptomycin as shown in Table 2 was used for cultivation of the medium which had been treated with samples. The cultivation was performed at 37° C., 5% CO2 for 1 day.
# After cultivation of 24 hours with test samples, the plate was washed with HCSS (HEPES-buffered control salt solution) to remove the medium and the HCSS was treated with 100 μl of 20 μM DCFH-DA (2′,7′-dichlorodihydro-fluorescein diacetate, Molecular Probes, Inc). Then, the plate was kept under conditions of 37° C., 5% CO2 for 20 minutes and washed with HCSS. Next, the plate was treated with 100 μl of HCSS comprising samples at different concentrations and the fluorescence intensity of DCF (dichlorofluorescein), which had been oxidized […] at the early stage, was measured using a fluorescent plate reader (Ex=485 nm, Em=530 nm). The fluorescence, right after the irradiation of UVB (30 mJ/cm^2) or 3 hours later of the irradiation, was measured using a fluorescent plate reader (Ex=485 nm, Em=530 nm).
# As control, Trolox was used.
# [2] = system: procollagen type (I); experiment: Promotion of collagen biosynthesis in fibroblasts (procollagen type (I) ELISA); format: cell-based; conditions: 24 hours, compared to 100 of the non-treatment group
# Protocol: Firstly, fibroblasts (PromoCell, Germany) were seeded in a 24 well plate at a level of 10^5 per well and cultured until they grew up to 90%. […] The supernatant was taken and examined for increase and decrease of procollagen using procollagen type (I) ELISA kit (proc/; ollagen type (I)). The result is shown in Table 3, in which the synthesis is compared to 100 of the non-treatment group.
# [3] = system: collagenase; experiment: Inhibition of collagenase expression in human fibroblasts; format: cell-based; conditions: molar concentration of 10^−4, 24 hours, compared to 100 of the non-treatment group
# Protocol: (§1) Firstly, human fibroblasts were seeded in a 96-well microtiter plate containing DMEM supplemented with 2.5% fetal bovine serum at a level of 5000 cells per well and cultured until they grew up to 90%.
# Then, the culture fluid was examined for formation of collagenase using a commercially available collagenase measuring kit (Amorsham pharmacia, USA).
# (§2) Firstly, the taken cell culture fluid was added to the 96-well plate having the primary collagenase antibody evenly applied and left for antigen-antibody reaction in a thermostat for 3 hours. After 3 hours, the secondary collagen antibody having a chromophore bonded thereto was added to the 96-well plate and left for reaction for 15 minutes. After 15 minutes, a color developing agent was added and left for 15 minutes. Then, 1M sulphuric acid was added to quit the reaction (color development), upon which the color of the reaction became yellow. The yellow level varied according to the progress of the reaction.
# (§3) The absorption of the 96-well plate of the yellow color was measured at 405 nm using a spectrophotometer. The expression of collagenase was calculated according to the following Equation I. Here, the absorption of the control was the absorption of the cell culture fluid taken from the group which had not been treated with the test materials. Expression of collagenase (%) (A/B)×100 [Equation I] • (A: absorption of cells treated with the test materials B: absorption of control)
# Meanwhile, the result of measurement of inhibition effect of the test materials on collagenase expression in human fibroblasts is shown in Table 4, in which in which the expression of collagenase is compared to 100 of the non-treatment group.
# [4] = system: elastase; experiment: Inhibition of elastase expression in human fibroblasts; format: cell-based; conditions: molar concentration of 10^−4, 24 hours, compared to 100 of the non-treatment group
# Protocol: as §1
# Then, the culture fluid was examined for formation of elastase using a commercially available elastase measuring kit (Amorsham pharmacia, USA).
# as §2, with “elastase” for “collagenase”
# as §3, with “elastase” for “collagenase”, “II.” for “I.”, “elastase (%)=(A/B)×100” for “collagenase (%) (A/B)×100”, “II]” for “I]”
# Meanwhile, the result of measurement of inhibition effect of the test materials on elastase expression in human fibroblasts is shown in Table 5, in which the expression of elastase is compared to 100 of the non-treatment group.
# [5] = system: pigment cells (Mel-Ab cell); experiment: Inhibition of melanin synthesis using pigment cell of mouse; format: cell-based; conditions: 10 ppm for continuous 3 days, non-treatment group given as 100.0
# Excerpt: Here, hydroquinone was a positive control.
# [6] = system: human skin; experiment: Whitening effect on human skin after UV-induced darkening; format: in vivo; conditions: 1% applied on UV-darkened upper arm skin, 10 weeks, colorimeter
# Protocol: Firstly, 12 healthy males were enlisted for the test. They had opaque tape with a 1.5 cm hole attached on the upper arm. UV rays 1.5 to 2 times greater than the minimal erythema dose were irradiated to induce darkening of the skin.
# For 10 weeks, the change was observed. Every 1 week, the color of the skin was measured by colorimeter CR2002 (Japan, Minolta)
# Then, the difference of skin color (ΔL*) between the point when the application of the test material was initiated and the point when the application of the test material was completed was calculated according to the following equation and the result is shown in Table 7. Meanwhile, the whitening effect was determined by comparison of ΔL* between the sample applied part and the control. When ΔL* value is about 2, the whitening of the pigmentation was significant. When ΔL* is over 1.5, it was considered that the sample had whitening effect. ΔL*=(L*at the point when the application is completed)−(L*at the point when the application is initiated) [Equation 4]
# [7] = DPPH test of anti-oxidant effect; format: biochemical; conditions: read-out: DPPH analysis IC50 (concentration, upon which the absorption is decreased to 50%); 100 μM DPPH in ethanol, 37° C., 30 minutes, absorption at 540 nm
# Protocol: A method for evaluating anti-oxidant effect through change of absorption generated by reduction of the organic radical DPPH (1,1-diphenyl-2-picryl hydrazyl) (while anti-oxidant is oxidized) is used. The change of absorption, which was decreased when the oxidization of DPPH was inhibited, was measured, as compared to the control.
# The absorption was measured at 540 nm. The control sample was synthesized anti-oxidant Trolox, commonly used.
Compound,Inhibition effect on ROS production (control %) ([1]; 6.25 uM),Inhibition effect on ROS production (control %) ([1]; 12.5 uM),Inhibition effect on ROS production (control %) ([1]; 25 uM),Inhibition effect on ROS production (control %) ([1]; 50 uM),Synthesis (%) of procollagen [2],Expression of collagenase (%) [3],Expression of elastase (%) [4],Melanin content (% of untreated control) [5],Whitening effect (ΔL*) [6],IC50 [7],"activity at 6.25 µM ([1]; Homo sapiens, light or radiation study, 6.25 uM, read-out: Inhibition effect on ROS production (control %))","activity at 12.5 µM ([1]; Homo sapiens, light or radiation study, 12.5 uM, read-out: Inhibition effect on ROS production (control %))","activity at 25 µM ([1]; Homo sapiens, light or radiation study, 25 uM, read-out: Inhibition effect on ROS production (control %))","activity at 50 µM ([1]; Homo sapiens, light or radiation study, 50 uM, read-out: Inhibition effect on ROS production (control %))"
COc1ccc(-c2oc3c(CC=C(C)C)c(O[C@@H]4O[C@H](CO)[C@@H](O)[C@H](O)[C@H]4O)cc(O)c3c(=O)c2O[C@@H]2O[C@@H](C)[C@H](O)[C@@H](O)[C@H]2O)cc1 [Icariin],98.1%,89.7%,88.6%,86.3%,117%,81%,87%,84.5%,1.10 ± 0.13,–,–,–,–,–
COc1ccc(-c2oc3c(CC=C(C)C)c(O[C@@H]4O[C@H](CO)[C@@H](O)[C@H](O)[C@H]4O)cc(O)c3c(=O)c2O)cc1 [Icariside I],65.6%,61.4%,54.8%,43.8%,145%,64%,56%,38.6%,1.88 ± 0.17,7.78 µM,–,–,–,–
COc1ccc(-c2oc3c(CC=C(C)C)c(O)cc(O)c3c(=O)c2O[C@@H]2O[C@H](C)[C@@H](O)[C@H](O)[C@@H]2O)cc1 [Icariside II],63.2%,62.0%,56.6%,46.6%,138%,66%,63%,38.2%,1.83 ± 0.25,7.15 µM,–,–,–,–
COc1ccc(-c2oc3c(CC=C(C)C)c(O)cc(O)c3c(=O)c2O)cc1 [Icaritin],68.2%,61.5%,51.7%,43.2%,146%,66%,55%,39.5%,1.89 ± 0.25,6.75 µM,–,–,–,–
"Oc1ccc(O)cc1 [Hydroquinone, hydroquinone, reference compound]",–,–,–,–,–,–,–,41.1%,1.90 ± 0.11,–,–,–,–,–
"Cc1c(C)c2c(c(C)c1O)CCC(C)(C(=O)O)O2 (stereo not shown) [Trolox, reference compound]",–,–,–,–,–,–,–,–,–,8.63 µM,76.9%,74.6%,73.3%,58.5%
tocopherol [reference compound],–,–,–,–,118%,75%,88%,–,–,–,–,–,–,–
"O=C(O[C@@H]1Cc2c(O)cc(O)cc2O[C@@H]1c1cc(O)c(O)c(O)c1)c1cc(O)c(O)c(O)c1 [EGCG, reference compound]",–,–,–,–,125%,60%,68%,–,–,–,–,–,–,–
